According to the kinase profiling compilation of Christmann-Franck et al. (2016):

Assays:
Experiment in all cases: KINOMEscan competition binding
Settings in all cases: compound 10.0 µM
SRPK2 (human) = SRPK2 (human) (UniProt P78362)
MAP2K4 (human) = MAP2K4 (human) (UniProt P45985)
SRPK3 (human) = SRPK3 (human) (UniProt Q9UPE1)
[1] = test system: KIT (human), P10721 [V559D/T670I]
MAPK8 (human) = MAPK8 (human) (UniProt P45983)
MKNK1 (human) = MKNK1 (human) (UniProt Q9BUB5)
CLK2 (human) = CLK2 (human) (UniProt P49760)
[2] = test system: EGFR (human), P00533 [747-751 del / S ins]
ULK2 (human) = ULK2 (human) (UniProt Q8IYT8)
TLK1 (human) = TLK1 (human) (UniProt Q9UKI8)
[3] = test system: FLT3 (human), P36888 [D835Y]
CSNK1G3 (human) = CSNK1G3 (human) (UniProt Q9Y6M4)
CSNK1G3 (human), sequence (Q9Y6M4 whole entry, looked up): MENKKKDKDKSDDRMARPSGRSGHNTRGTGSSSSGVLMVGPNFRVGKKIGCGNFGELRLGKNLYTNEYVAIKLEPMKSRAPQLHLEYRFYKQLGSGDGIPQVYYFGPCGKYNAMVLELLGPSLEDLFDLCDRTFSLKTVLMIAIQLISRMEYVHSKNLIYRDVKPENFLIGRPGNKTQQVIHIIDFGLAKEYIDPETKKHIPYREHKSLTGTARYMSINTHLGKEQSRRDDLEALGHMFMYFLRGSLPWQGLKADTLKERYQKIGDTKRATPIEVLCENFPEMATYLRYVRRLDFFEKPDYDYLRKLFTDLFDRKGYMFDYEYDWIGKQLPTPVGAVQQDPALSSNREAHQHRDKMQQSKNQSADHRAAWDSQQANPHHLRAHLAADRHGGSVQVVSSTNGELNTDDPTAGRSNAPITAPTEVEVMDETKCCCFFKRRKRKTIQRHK

RIPK4 (human) = RIPK4 (human) (UniProt P57078)
CLK4 (human) = CLK4 (human) (UniProt Q9HAZ1)
[4] = molecular target: TYK2 JH2 pseudokinase (human) (UniProt P29597)
FLT3 (human) = FLT3 (human) (UniProt P36888)
CLK3 (human) = CLK3 (human) (UniProt P49761)
[5] = molecular target: JAK1 JH2 pseudokinase (human) (UniProt P23458)
TAOK1 (human) = TAOK1 (human) (UniProt Q7L7X3)
STK16 (human) = STK16 (human) (UniProt O75716)
STK33 (human) = STK33 (human) (UniProt Q9BYT3)
GAK (human) = GAK (human) (UniProt O14976)
MAP2K3 (human) = MAP2K3 (human) (UniProt P46734)
MAP2K3 (human), sequence (P46734 whole entry, looked up): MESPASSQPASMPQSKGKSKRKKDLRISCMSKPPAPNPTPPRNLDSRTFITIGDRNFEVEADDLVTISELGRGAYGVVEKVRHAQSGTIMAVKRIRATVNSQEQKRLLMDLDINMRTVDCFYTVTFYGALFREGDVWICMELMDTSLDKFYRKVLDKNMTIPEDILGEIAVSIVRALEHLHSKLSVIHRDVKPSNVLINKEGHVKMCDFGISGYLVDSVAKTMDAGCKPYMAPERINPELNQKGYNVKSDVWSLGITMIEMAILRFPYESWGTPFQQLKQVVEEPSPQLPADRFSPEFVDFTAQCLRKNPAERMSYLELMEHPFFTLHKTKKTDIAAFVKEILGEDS

ACVR1 (human) = ACVR1 (human) (UniProt Q04771)
[6] = test system: EGFR (human), P00533 [G719S]
[7] = test system: FLT3 (human), P36888 [ITD]
TNK1 (human) = TNK1 (human) (UniProt Q13470)
RPS6KA6 KD2 (human) = RPS6KA6 KD2 (human) (UniProt Q9UK32)
PDGFRB (human) = PDGFRB (human) (UniProt P09619)
PDGFRB (human), sequence (P09619 whole entry, looked up): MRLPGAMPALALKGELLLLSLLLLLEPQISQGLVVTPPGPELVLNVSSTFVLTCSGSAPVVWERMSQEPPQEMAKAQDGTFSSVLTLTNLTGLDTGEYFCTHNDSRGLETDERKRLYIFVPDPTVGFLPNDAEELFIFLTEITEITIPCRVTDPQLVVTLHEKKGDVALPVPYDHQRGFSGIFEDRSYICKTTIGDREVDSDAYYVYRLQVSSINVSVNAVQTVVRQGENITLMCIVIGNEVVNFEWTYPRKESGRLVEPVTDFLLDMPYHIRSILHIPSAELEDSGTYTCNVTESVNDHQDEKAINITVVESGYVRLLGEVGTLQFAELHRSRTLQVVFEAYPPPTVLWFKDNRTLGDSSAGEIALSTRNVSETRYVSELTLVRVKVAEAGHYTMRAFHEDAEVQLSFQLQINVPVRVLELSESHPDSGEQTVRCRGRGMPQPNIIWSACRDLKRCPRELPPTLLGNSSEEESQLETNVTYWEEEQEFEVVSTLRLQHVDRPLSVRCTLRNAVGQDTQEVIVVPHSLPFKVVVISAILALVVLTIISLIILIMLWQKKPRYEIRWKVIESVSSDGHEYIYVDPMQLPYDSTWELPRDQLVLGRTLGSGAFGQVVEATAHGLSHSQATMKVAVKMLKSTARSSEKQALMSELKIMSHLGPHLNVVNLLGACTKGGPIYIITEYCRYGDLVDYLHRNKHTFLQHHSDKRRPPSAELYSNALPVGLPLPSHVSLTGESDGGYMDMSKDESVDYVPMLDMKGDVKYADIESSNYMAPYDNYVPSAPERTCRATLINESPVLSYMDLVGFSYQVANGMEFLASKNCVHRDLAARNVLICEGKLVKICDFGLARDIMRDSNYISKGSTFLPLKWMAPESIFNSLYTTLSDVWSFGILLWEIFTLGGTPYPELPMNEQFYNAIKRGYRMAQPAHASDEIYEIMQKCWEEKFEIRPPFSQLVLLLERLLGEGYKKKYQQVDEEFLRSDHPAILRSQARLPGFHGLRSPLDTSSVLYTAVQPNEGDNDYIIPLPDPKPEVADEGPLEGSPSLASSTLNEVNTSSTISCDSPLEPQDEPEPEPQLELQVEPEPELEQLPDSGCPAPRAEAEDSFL

CAMKK1 (human) = CAMKK1 (human) (UniProt Q8N5S9)
CAMKK1 (human), sequence (Q8N5S9 whole entry, looked up): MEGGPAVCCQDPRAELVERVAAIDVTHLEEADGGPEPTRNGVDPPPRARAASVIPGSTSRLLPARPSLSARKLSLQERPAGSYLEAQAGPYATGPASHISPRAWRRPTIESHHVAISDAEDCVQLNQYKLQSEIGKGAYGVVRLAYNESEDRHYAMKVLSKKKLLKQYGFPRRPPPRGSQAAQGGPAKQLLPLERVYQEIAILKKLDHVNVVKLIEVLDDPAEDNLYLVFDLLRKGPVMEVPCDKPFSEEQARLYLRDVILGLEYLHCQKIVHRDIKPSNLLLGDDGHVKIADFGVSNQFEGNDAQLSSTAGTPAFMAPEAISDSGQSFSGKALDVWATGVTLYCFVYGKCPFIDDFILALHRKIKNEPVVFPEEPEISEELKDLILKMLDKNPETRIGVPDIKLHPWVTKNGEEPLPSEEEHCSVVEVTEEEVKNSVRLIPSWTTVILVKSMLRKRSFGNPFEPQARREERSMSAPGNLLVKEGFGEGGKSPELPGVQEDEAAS

[8] = test system: KIT (human), P10721 [V559D]
PRKD3 (human) = PRKD3 (human) (UniProt O94806)
STK11 (human) = STK11 (human) (UniProt Q15831)
[9] = test system: KIT (human), P10721 [V559D/V654A]
PIM2 (human) = PIM2 (human) (UniProt Q9P1W9)
PIM2 (human), sequence (Q9P1W9 whole entry, looked up): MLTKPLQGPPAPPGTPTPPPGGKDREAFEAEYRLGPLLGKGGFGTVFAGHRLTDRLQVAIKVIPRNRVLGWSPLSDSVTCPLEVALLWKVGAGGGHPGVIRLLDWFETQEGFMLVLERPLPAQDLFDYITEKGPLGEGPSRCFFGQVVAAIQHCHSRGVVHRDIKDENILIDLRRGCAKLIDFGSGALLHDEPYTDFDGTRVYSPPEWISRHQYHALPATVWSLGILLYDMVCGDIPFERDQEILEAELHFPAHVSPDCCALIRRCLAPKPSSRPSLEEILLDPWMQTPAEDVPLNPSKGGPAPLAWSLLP

MELK (human) = MELK (human) (UniProt Q14680)
DAPK2 (human) = DAPK2 (human) (UniProt Q9UIK4)
TTK (human) = TTK (human) (UniProt P33981)
TTK (human), sequence (P33981 whole entry, looked up): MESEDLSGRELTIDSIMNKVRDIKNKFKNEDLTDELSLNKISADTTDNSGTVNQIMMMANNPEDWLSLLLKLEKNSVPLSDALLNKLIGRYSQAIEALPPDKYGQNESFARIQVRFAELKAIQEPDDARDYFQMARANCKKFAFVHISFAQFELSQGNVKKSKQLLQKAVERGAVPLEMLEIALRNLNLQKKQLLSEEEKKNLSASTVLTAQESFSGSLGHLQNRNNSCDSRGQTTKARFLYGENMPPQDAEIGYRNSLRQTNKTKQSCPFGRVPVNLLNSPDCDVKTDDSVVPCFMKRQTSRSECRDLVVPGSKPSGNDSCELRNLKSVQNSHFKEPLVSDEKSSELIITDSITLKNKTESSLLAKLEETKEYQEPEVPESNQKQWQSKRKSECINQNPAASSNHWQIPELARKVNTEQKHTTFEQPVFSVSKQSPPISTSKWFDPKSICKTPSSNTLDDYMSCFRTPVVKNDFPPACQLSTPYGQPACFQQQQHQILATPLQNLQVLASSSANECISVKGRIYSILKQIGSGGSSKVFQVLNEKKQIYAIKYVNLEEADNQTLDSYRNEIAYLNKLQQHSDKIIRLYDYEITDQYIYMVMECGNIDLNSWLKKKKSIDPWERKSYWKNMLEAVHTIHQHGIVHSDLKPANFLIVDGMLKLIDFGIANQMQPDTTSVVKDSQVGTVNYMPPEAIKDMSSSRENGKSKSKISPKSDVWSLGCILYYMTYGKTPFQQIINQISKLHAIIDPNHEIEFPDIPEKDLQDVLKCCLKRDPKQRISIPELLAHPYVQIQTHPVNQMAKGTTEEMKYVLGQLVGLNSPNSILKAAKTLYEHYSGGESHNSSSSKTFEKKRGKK

[10] = test system: FLT3 (human), P36888 [D835H]
RPS6KA1 KD2 (human) = RPS6KA1 KD2 (human) (UniProt Q15418)
STK24 (human) = STK24 (human) (UniProt Q9Y6E0)
STK24 (human), sequence (Q9Y6E0 whole entry, looked up): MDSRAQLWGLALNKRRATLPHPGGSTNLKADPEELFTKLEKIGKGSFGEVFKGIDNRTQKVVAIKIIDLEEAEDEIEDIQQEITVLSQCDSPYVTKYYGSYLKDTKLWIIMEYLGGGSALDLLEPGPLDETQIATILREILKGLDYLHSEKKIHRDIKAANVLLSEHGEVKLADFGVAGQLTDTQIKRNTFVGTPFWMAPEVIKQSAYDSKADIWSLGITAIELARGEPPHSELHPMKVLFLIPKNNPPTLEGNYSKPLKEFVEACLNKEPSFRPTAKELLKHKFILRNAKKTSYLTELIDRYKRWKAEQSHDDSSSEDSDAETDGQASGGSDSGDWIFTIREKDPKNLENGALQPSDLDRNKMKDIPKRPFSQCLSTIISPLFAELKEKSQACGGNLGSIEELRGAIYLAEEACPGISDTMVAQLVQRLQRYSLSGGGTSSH

TNIK (human) = TNIK (human) (UniProt Q9UKE5)

MKNK1 (human), sequence (Q9BUB5 whole entry, looked up): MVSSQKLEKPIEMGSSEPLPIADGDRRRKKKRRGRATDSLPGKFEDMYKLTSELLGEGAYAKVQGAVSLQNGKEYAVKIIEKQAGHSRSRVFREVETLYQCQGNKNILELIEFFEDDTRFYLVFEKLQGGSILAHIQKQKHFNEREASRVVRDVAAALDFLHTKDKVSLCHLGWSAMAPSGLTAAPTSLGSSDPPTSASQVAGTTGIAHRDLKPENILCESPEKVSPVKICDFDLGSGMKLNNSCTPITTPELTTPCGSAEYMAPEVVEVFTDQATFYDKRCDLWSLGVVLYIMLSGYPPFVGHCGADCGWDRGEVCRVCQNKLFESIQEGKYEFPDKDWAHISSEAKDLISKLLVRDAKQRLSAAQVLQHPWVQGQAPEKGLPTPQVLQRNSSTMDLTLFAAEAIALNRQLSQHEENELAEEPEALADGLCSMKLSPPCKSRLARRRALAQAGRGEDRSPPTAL
MAPK8 (human), sequence (P45983 whole entry, looked up): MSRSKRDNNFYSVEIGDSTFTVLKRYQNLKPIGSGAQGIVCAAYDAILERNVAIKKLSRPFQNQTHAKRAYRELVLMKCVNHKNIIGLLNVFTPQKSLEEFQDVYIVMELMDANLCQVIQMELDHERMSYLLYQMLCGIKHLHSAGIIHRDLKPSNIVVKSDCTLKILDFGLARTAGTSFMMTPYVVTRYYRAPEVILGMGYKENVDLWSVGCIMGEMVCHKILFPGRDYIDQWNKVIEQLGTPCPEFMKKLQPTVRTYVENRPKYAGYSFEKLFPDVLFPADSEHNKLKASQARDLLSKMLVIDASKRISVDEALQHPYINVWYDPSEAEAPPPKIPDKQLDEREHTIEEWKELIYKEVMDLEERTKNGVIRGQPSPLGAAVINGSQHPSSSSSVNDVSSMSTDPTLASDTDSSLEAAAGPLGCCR

kinase still bound, per cent of control (SRPK2 (human)): 100% | kinase still bound, per cent of control (MAP2K4 (human)): 74% | kinase still bound, per cent of control (SRPK3 (human)): 84% | kinase still bound, per cent of control [1]: 73% | kinase still bound, per cent of control (MAPK8 (human)): 100% | kinase still bound, per cent of control (MKNK1 (human)): 28% | kinase still bound, per cent of control (CLK2 (human)): 100% | kinase still bound, per cent of control [2]: 100% | kinase still bound, per cent of control (ULK2 (human)): 6.2% | kinase still bound, per cent of control (TLK1 (human)): 69% | kinase still bound, per cent of control [3]: 24% | kinase still bound, per cent of control (CSNK1G3 (human)): 67% | kinase still bound, per cent of control (RIPK4 (human)): 61% | kinase still bound, per cent of control (CLK4 (human)): 100% | kinase still bound, per cent of control [4]: 71% | kinase still bound, per cent of control (FLT3 (human)): 100% | kinase still bound, per cent of control (CLK3 (human)): 97% | kinase still bound, per cent of control [5]: 4.8% | kinase still bound, per cent of control (TAOK1 (human)): 0.9% | kinase still bound, per cent of control (STK16 (human)): 59% | kinase still bound, per cent of control (STK33 (human)): 75% | kinase still bound, per cent of control (GAK (human)): 37% | kinase still bound, per cent of control (MAP2K3 (human)): 84% | kinase still bound, per cent of control (ACVR1 (human)): 88% | kinase still bound, per cent of control [6]: 100% | kinase still bound, per cent of control [7]: 52% | kinase still bound, per cent of control (TNK1 (human)): 0.95% | kinase still bound, per cent of control (RPS6KA6 KD2 (human)): 63% | kinase still bound, per cent of control (PDGFRB (human)): 61% | kinase still bound, per cent of control (CAMKK1 (human)): 98% | kinase still bound, per cent of control [8]: 80% | kinase still bound, per cent of control (PRKD3 (human)): 69% | kinase still bound, per cent of control (STK11 (human)): 100% | kinase still bound, per cent of control [9]: 58% | kinase still bound, per cent of control (PIM2 (human)): 100% | kinase still bound, per cent of control (MELK (human)): 100% | kinase still bound, per cent of control (DAPK2 (human)): 100% | kinase still bound, per cent of control (TTK (human)): 78% | kinase still bound, per cent of control [10]: 28% | kinase still bound, per cent of control (RPS6KA1 KD2 (human)): 45% | kinase still bound, per cent of control (STK24 (human)): 82% | kinase still bound, per cent of control (TNIK (human)): 83%
Compound: CN1C(=O)c2ccccc2N(C)c2nc(Nc3ccc(N4CCC(O)CC4)cc3)ncc21
